From US9045461B2, “Phenyl-heteroaryl derivatives and methods of use thereof” (TransTech Pharma, LLC, priority 2010, dated 2015) come the findings set out here.

Test [1] addresses T1, sRAGE binding to β-amyloid (Homo sapiens, UniProt Q15109).
T1 construct: extracellular domain can be isolated by proteolysis of RAGE to generate soluble RAGE (sRAGE) comprised of the V and C domains
The test is described as follows: RAGE binding assay (ELISA), β-amyloid as the RAGE ligand. The following applies: compounds tested in hydrochloride salt form, concentration at which 50% signal has been inhibited. An outline of the steps:
(§1)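 Ligand (500 ng/well) coated in carbonate buffer pH 9.8 overnight at 4° C and blocked with 1% BSA; test compound (10-100 μM in water, 4% DMSO co-solvent) incubated with sRAGE (6 nM FAC) 1 h at 37° C. Bound sRAGE detected by anti-sRAGE/biotin-anti-mouse/AP-streptavidin with pNPP, A405. IC50 = 50% signal inhibition.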

The target of a further test is T2, sRAGE binding to S100b (Homo sapiens, UniProt Q15109).
T2 construct: extracellular domain can be isolated by proteolysis of RAGE to generate soluble RAGE (sRAGE) comprised of the V and C domains
T2 sequence (Q15109 23-342 limits assumed): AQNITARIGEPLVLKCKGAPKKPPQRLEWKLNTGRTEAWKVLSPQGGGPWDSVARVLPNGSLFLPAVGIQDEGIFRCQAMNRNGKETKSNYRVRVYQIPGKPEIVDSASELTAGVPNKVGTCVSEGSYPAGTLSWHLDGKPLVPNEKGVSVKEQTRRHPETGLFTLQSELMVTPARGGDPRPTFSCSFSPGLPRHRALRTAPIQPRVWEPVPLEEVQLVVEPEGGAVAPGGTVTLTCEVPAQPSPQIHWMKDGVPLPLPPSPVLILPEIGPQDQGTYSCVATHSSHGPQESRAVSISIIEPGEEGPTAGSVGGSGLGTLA
The test is described as follows: RAGE binding assay (ELISA), S100b as the RAGE ligand. The following applies: compounds tested in hydrochloride salt form, concentration at which 50% signal has been inhibited. An outline of the steps:
as §1
On the technique in general: An ELISA detects its analyte on a solid surface through an enzyme-linked reagent.

Counter-ions that a name gives are not always drawn.

T1 sequence (Q15109 23-342 limits assumed): as above

`CCCCc1nnc(OC2CCN(C)CC2)cc1-c1ccc(OC2CCCCC2)c(C#N)c1` [Example 67, 5-[3-Butyl-6-(1-methyl-piperidin-4-yloxy)-pyridazin-4-yl]-2-cyclohexyloxy-benzonitrile dihydrochloride]: the IC50 in test [1] was 3.2 µM; on sRAGE binding to S100b it was 1.7 µM.

In the case of `CCCCc1nnc(OC2CCN(C)CC2)cc1-c1ccc(OC2CCCCC2)c(N2CCCC2=O)c1` [Example 68, 1-{5-[3-Butyl-6-(1-methyl-piperidin-4-yloxy)-pyridazin-4-yl]-2-cyclohexyloxy-phenyl}-pyrrolidin-2-one dihydrochloride], the IC50 in test [1] came to 2.49 µM; on sRAGE binding to S100b, 2.04 µM.

As for `CCCCc1nnc(OC2CCN(C)CC2)cc1-c1ccc(OC2CCCCC2)c(-c2cnn(C)c2)c1` [Example 69, 3-Butyl-4-[4-cyclohexyloxy-3-(1-methyl-1H-pyrazol-4-yl)-phenyl]-6-(1-methyl-piperidin-4-yloxy)-pyridazine dihydrochloride], the IC50 in test [1] amounted to 0.79 µM; at sRAGE binding to S100b, 0.73 µM.

For the molecule `CCCCc1nnc(OC2CCN(C)CC2)cc1-c1ccc(OC2CCCCC2)c(-c2nnnn2C)c1` [Example 70, 3-Butyl-4-[4-cyclohexyloxy-3-(1-methyl-1H-tetrazol-5-yl)-phenyl]-6-(1-methyl-piperidin-4-yloxy)-pyridazine dihydrochloride], the figures for the IC50 (in test [1]; at sRAGE binding to S100b) were 2.94 µM and 2.17 µM, respectively.

Turning to `CCCCc1nnc(OC2CCN(C)CC2)cc1-c1ccc(OC2CCCCC2)c(C(=O)OC)c1` [Example 71, 5-[3-Butyl-6-(1-methyl-piperidin-4-yloxy)-pyridazin-4-yl]-2-cyclohexyloxy-benzoic acid methyl ester dihydrochloride], the IC50 turned out to be 1.59 µM in test [1] and 1.13 µM at sRAGE binding to S100b.

`CCCCc1nnc(OC2CCN(C)CC2)cc1-c1ccc(OC2CCCCC2)c(-c2cnoc2)c1` [Example 72, 3-Butyl-4-(4-cyclohexyloxy-3-isoxazol-4-yl-phenyl)-6-(1-methyl-piperidin-4-yloxy)-pyridazine dihydrochloride]: the IC50 in test [1] amounted to 1.2 µM; on sRAGE binding to S100b, 1.69 µM.

For `CCCCc1nnc(OC2CCN(C)CC2)cc1-c1ccc(OC2CCCCC2)c(OC)c1` [Example 73, 3-Butyl-4-(4-cyclohexyloxy-3-methoxy-phenyl)-6-(1-methyl-piperidin-4-yloxy)-pyridazine dihydrochloride], the IC50 worked out at 1.04 µM in test [1] and 1.74 µM on sRAGE binding to S100b.

Take `CCCCc1nnc(OC2CCN(C)CC2)cc1-c1ccc(OC2CCCCC2)c(O)c1` [Example 74, 5-[3-Butyl-6-(1-methyl-piperidin-4-yloxy)-pyridazin-4-yl]-2-cyclohexyloxy-phenol dihydrochloride]: the IC50 in test [1] stood at 1.16 µM; at sRAGE binding to S100b, 1.64 µM.

For the molecule `CCCCc1nnc(OC2CCN(C)CC2)cc1-c1ccc(OC2CCCCC2)c(N2CCCS2(=O)=O)c1` [Example 75, 3-Butyl-4-[4-cyclohexyloxy-3-(1,1-dioxo-1lambda*6*-isothiazolidin-2-yl)-phenyl]-6-(1-methyl-piperidin-4-yloxy)-pyridazine dihydrochloride], the IC50 in test [1] came out at 2.85 µM; on sRAGE binding to S100b, 2.19 µM.

`CCCCc1nnc(OC2CCN(C)CC2)cc1-c1ccc(OC2CCCCC2)c(C2=NC(C)(C)CO2)c1` [Example 76, 3-Butyl-4-[4-cyclohexyloxy-3-(4,4-dimethyl-4,5-dihydro-oxazol-2-yl)-phenyl]-6-(1-methyl-piperidin-4-yloxy)-pyridazine]: the IC50 in test [1] turned out to be 6.78 µM; on sRAGE binding to S100b it was 2.07 µM.

`CCCCc1nnc(OC2CCN(C)CC2)cc1-c1ccc(OC2CCCCC2)c(NC(=O)NC(C)(C)C)c1` [Example 77, 1-tert-Butyl-3-{5-[3-butyl-6-(1-methyl-piperidin-4-yloxy)-pyridazin-4-yl]-2-cyclohexyloxy-phenyl}-urea dihydrochloride]: the IC50 in test [1] worked out at 0.66 µM; at sRAGE binding to S100b it was 0.68 µM.

Consider `CCCCc1nnc(OC2CCN(C)CC2)cc1-c1ccc(OC2CCCCC2)c(-c2cnn(CCOC)c2)c1` [Example 78, 3-Butyl-4-{4-cyclohexyloxy-3-[1-(2-methoxy-ethyl)-1H-pyrazol-4-yl]-phenyl}-6-(1-methyl-piperidin-4-yloxy)-pyridazine dihydrochloride], for which the results for the IC50 (in test [1]; on sRAGE binding to S100b) were 1.16 µM and 0.5 µM, respectively.

Consider `CCCCc1nnc(OC2CCN(C)CC2)cc1-c1ccc(OC2CCCCC2)c(-c2nnn(C)n2)c1` [Example 79, 3-Butyl-4-[4-cyclohexyloxy-3-(2-methyl-2H-tetrazol-5-yl)-phenyl]-6-(1-methyl-piperidin-4-yloxy)-pyridazine dihydrochloride], for which the values for the IC50 (in test [1]; on sRAGE binding to S100b) were 1.49 µM and 1.47 µM, respectively.

For the molecule `CCCCc1nnc(C(=O)NC2CCN(C)CC2)cc1-c1ccc(OCc2ccccc2)cc1` [Example 80, 5-(4-Benzyloxy-phenyl)-6-butyl-pyridazine-3-carboxylic acid (1-methyl-piperidin-4-yl)-amide dihydrochloride], the IC50 (in test [1]; at sRAGE binding to S100b) was 1.25 µM in each case.

Take `CCCCc1nnc(C(=O)NCC2CCN(C)CC2)cc1-c1ccc(OCc2ccccc2)cc1` [Example 81, 5-(4-Benzyloxy-phenyl)-6-butyl-pyridazine-3-carboxylic acid (1-methyl-piperidin-4-ylmethyl)-amide dihydrochloride]: the IC50 in test [1] came to 1.54 µM; at sRAGE binding to S100b, 1.82 µM.

For `CCCCc1nnc(C(=O)N[C@@H]2CN3CCC2CC3)cc1-c1ccc(OCc2ccccc2)cc1` [Example 82, 5-(4-Benzyloxy-phenyl)-6-butyl-pyridazine-3-carboxylic acid (S)-(1-aza-bicyclo[2.2.2]oct-3-yl)-amide dihydrochloride], the IC50 in test [1] turned out to be 1.29 µM; at sRAGE binding to S100b it was 1.27 µM.

Take `CCCCc1nnc(C(=O)N[C@H]2CN3CCC2CC3)cc1-c1ccc(OCc2ccccc2)cc1` [Example 83, 5-(4-Benzyloxy-phenyl)-6-butyl-pyridazine-3-carboxylic acid (R)-(1-aza-bicyclo[2.2.2]oct-3-yl)-amide dihydrochloride]: the IC50 in test [1] amounted to 1.13 µM; at sRAGE binding to S100b, 1.18 µM.

With `CCCCc1nnc(C(=O)NC2CCN(C)CC2)cc1-c1ccc(OC2CCCCC2)cc1` [Example 84, 6-Butyl-5-(4-cyclohexyloxy-phenyl)-pyridazine-3-carboxylic acid (1-methyl-piperidin-4-yl)-amide dihydrochloride], the figures for the IC50 (in test [1]; on sRAGE binding to S100b) were 1.96 µM and 1.56 µM, respectively.

As for `CCCCc1nnc(C(=O)N[C@@H]2CN3CCC2CC3)cc1-c1ccc(OC2CCCCC2)cc1` [Example 85, (S)-6-Butyl-5-(4-cyclohexyloxy-phenyl)-pyridazine-3-carboxylic acid (1-aza-bicyclo[2.2.2]oct-3-yl)-amide dihydrochloride], the IC50 in test [1] amounted to 1.97 µM; at sRAGE binding to S100b, 1.49 µM.

On to `CCCCc1nnc(C(=O)N[C@H]2CN3CCC2CC3)cc1-c1ccc(OC2CCCCC2)cc1` [Example 86, (R)-6-Butyl-5-(4-cyclohexyloxy-phenyl)-pyridazine-3-carboxylic acid (1-aza-bicyclo[2.2.2]oct-3-yl)-amide dihydrochloride], for which the results for the IC50 (in test [1]; at sRAGE binding to S100b) were 1.02 µM and 1.92 µM, respectively.

Consider `CCCCc1nnc(C(=O)NC[C@H](O)CN(C)C)cc1-c1ccc(OC2CCCCC2)cc1` [Example 87, 6-Butyl-5-(4-cyclohexyloxy-phenyl)-pyridazine-3-carboxylic acid ((S)-3-dimethylamino-2-hydroxy-propyl)-amide dihydrochloride], for which the IC50 came to 2.43 µM in test [1] and 1.97 µM at sRAGE binding to S100b.

As for `CCCCc1nnc(C(=O)NC[C@@H](O)CN(C)C)cc1-c1ccc(OC2CCCCC2)cc1` [Example 88, 6-Butyl-5-(4-cyclohexyloxy-phenyl)-pyridazine-3-carboxylic acid ((R)-3-dimethylamino-2-hydroxy-propyl)-amide dihydrochloride], the IC50 came out at 2.46 µM in test [1] and 2.03 µM on sRAGE binding to S100b.

Take `CCCCc1nnc(C(=O)NCC2(OC)CCN(C)CC2)cc1-c1ccc(OC2CCCCC2)cc1` [Example 89, 6-Butyl-5-(4-cyclohexyloxy-phenyl)-pyridazine-3-carboxylic acid (4-methoxy-1-methyl-piperidin-4-ylmethyl)-amide dihydrochloride]: the IC50 stood at 2.01 µM in test [1] and 2.73 µM at sRAGE binding to S100b.

With `CCCCc1nnc(C(=O)NCC2CNCCO2)cc1-c1ccc(OC2CCCCC2)cc1` (stereo not drawn) [Example 90, 6-Butyl-5-(4-cyclohexyloxy-phenyl)-pyridazine-3-carboxylic acid (morpholin-2-ylmethyl)-amide dihydrochloride], the IC50 turned out to be 1.78 µM in test [1] and 1.54 µM on sRAGE binding to S100b.

For `CCCCc1nnc(C(=O)NC[C@H]2CCCN2CC)cc1-c1ccc(OC2CCCCC2)cc1` [Example 91, 6-Butyl-5-(4-cyclohexyloxy-phenyl)-pyridazine-3-carboxylic acid ((R)-1-ethyl-pyrrolidin-2-ylmethyl)-amide dihydrochloride], the IC50 in test [1] amounted to 1.39 µM; on sRAGE binding to S100b, 1.14 µM.

For the molecule `CCCCc1nnc(C(=O)NC[C@@H]2CCCN2CC)cc1-c1ccc(OC2CCCCC2)cc1` [Example 92, 6-Butyl-5-(4-cyclohexyloxy-phenyl)-pyridazine-3-carboxylic acid ((S)-1-ethyl-pyrrolidin-2-ylmethyl)-amide dihydrochloride], the IC50 was 1.02 µM in test [1] and 1.75 µM at sRAGE binding to S100b.

In the case of `CCCCc1nnc(C(=O)NCCN2CCC(O)CC2)cc1-c1ccc(OC2CCCCC2)cc1` [Example 93, 6-Butyl-5-(4-cyclohexyloxy-phenyl)-pyridazine-3-carboxylic acid [2-(4-hydroxy-piperidin-1-yl)-ethyl]-amide dihydrochloride], the IC50 in test [1] turned out to be 2.51 µM; on sRAGE binding to S100b it was 1.69 µM.

The term IC50 denotes the point on the concentration scale where inhibition reaches its midpoint.
